According to patent publication US7244850B2, “Benzimidazole derivatives, compositions containing them, preparation thereof and uses thereof” (AstraZeneca AB, priority 2003, dated 2007):

How the values were obtained:
[1] = molecular target: T1, human CB1 receptor (Homo sapiens, UniProt P21554); test: hCB1 receptor binding (3H-CP55,940 displacement); settings: hCB1 membranes, 3H-CP55,940 radioligand; Ki=IC50/(1+[rad]/Kd); read-out: Ki towards human CB1 receptors
T1 construct: purchased Receptor Biology
Description: (§1) Human CB1 receptor from Receptor Biology (hCB1) or human CB2 receptor from BioSignal (hCB2) membranes are thawed at 37° C., passed 3 times through a 25-gauge blunt-end needle, diluted in the cannabinoid binding buffer (50 mM Tris, 2.5 mM EDTA, 5 mM MgCl2, and 0.5 mg/mL BSA fatty acid free, pH 7.4) and aliquots containing the appropriate amount of protein are distributed in 96-well plates. The IC50 of the compounds of the invention at hCB1 and hCB2 are evaluated from 10-point dose-response curves done with ^3H-CP55,940 at 20000 to 25000 dpm per well (0.17-0.21 nM) in a final volume of 300 μl. The total and non-specific binding are determined in the absence and presence of 0.2 μM of HU210 respectively. The plates are vortexed and incubated for 60 minutes at room temperature, filtered through Unifilters GF/B (presoaked in 0.1% polyethyleneimine) with the Tomtec or Packard harvester using 3 mL of wash buffer (50 mM Tris, 5 mM MgCl2, 0.5 mg BSA pH 7.0). The filters are dried for 1 hour at 55° C. The radioactivity (cpm) is counted in a TopCount (Packard) after adding 65 μl/well of MS-20 scintillation liquid.
(§2) Based on the above assays, the dissociation constant (Ki) for a particular compound of the invention towards a particular receptor is determined using the following equation: Ki=IC50/(1+[rad]/Kd), […]

[2] = molecular target: T2, human CB2 receptor (Homo sapiens, UniProt P34972); test: hCB2 receptor binding (3H-CP55,940 displacement)
T2 construct: purchased BioSignal
Description: as §1, §2

T1 sequence (P21554 whole entry): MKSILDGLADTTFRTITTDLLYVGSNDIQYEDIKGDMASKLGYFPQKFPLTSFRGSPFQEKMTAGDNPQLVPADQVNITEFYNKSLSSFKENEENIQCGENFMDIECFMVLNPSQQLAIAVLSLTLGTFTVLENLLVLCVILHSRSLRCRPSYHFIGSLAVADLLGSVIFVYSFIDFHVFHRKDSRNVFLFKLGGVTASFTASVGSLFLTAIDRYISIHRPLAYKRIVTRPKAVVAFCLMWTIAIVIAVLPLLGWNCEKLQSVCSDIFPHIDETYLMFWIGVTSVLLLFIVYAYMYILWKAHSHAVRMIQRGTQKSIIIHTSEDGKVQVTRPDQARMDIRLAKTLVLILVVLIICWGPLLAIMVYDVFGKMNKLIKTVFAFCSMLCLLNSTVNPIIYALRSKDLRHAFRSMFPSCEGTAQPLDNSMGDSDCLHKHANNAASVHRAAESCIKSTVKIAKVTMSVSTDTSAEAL
T2 sequence (P34972 whole entry): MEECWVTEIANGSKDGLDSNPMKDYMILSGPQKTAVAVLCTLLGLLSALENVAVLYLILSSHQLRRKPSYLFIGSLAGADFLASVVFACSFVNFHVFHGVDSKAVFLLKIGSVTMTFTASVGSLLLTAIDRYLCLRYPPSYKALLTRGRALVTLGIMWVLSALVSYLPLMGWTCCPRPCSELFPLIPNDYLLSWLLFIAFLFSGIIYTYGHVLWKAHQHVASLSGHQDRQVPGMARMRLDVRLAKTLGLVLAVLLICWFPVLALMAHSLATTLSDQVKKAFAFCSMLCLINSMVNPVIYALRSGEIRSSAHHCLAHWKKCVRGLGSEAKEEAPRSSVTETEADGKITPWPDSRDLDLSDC

CC(C)(C)c1nc2cc(C(=O)N(CC(F)(F)F)CC(F)(F)F)ccc2n1CC1CCCCC1 [compound 1, 2-tert-Butyl-1-(cyclohexylmethyl)-N,N-bis(2,2,2-trifluoroethyl)1H-benzimidazole-5-carboxamide]
Ki [1]: ~34 nM
Ki [2]: ~33 nM
